ChEMBL document CHEMBL2150883, “Development of indole compounds as small molecule fusion inhibitors targeting HIV-1 glycoprotein-41” (J Med Chem, 2011)

Key:
[1] = Cytotoxicity against human MAGI-CCR5 cells assessed as cell viability by MTS assay; type: cell-based
[2] = Cytotoxicity against human MAGI-CCR5 cells assessed as cell viability by MTS assay in presence of 2% serum; type: cell-based
[3] = Cytotoxicity against human MAGI-CCR5 cells assessed as cell viability by MTS assay in presence of 10% serum; type: cell-based
[4] = Cytotoxicity against human MAGI-CCR5 cells assessed as cell viability by MTS assay in presence of 5% serum; type: cell-based
[5] = system: Human immunodeficiency virus 1; experiment: Antiviral activity against HIV1 Ba-L assessed as inhibition of viral replication by CCR5/CXCR4-tropic MAGI assay in presence of 10% serum; type: functional, organism-based; details: Human immunodeficiency virus 1, Ba-L
[6] = system: Human immunodeficiency virus 1; experiment: Antiviral activity against HIV1 3B assessed as inhibition of viral replication by CCR5/CXCR4-tropic MAGI assay in presence of 10% serum; type: functional, organism-based; details: Human immunodeficiency virus 1, 3B
[7] = system: Human immunodeficiency virus 1; experiment: Antiviral activity against HIV1 Ba-L assessed as inhibition of viral replication by CCR5/CXCR4-tropic MAGI assay in presence of 5% serum; type: functional, organism-based; details: Human immunodeficiency virus 1, Ba-L
[8] = system: Human immunodeficiency virus 1; experiment: Antiviral activity against HIV1 Ba-L assessed as inhibition of viral replication by CCR5/CXCR4-tropic MAGI assay in presence of 2% serum; type: functional, organism-based; details: Human immunodeficiency virus 1, Ba-L
[9] = Binding affinity to HIV1 HXB2 gp41 by fluorescence assay; design: species or system Human immunodeficiency virus 1
[10] = Inhibition of gp41 in HIV1 HXB2 assessed as cell-cell fusion inhibition after 6 hrs by luciferase reporter gene assay; details: Human immunodeficiency virus 1, HXB2, 6 h

| Structure (SMILES) | CC50 ([1]; MAGI-CCR5 cells) | CC50 [2] | CC50 [3] | CC50 [4] | EC50 [5] | EC50 [6] | EC50 [7] | EC50 [8] | CC50 ([1]; magi-ccr5) | Ki [9] | EC50 [10] |
| --- | --- | --- | --- | --- | --- | --- | --- | --- | --- | --- | --- |
| O=Cc1c[nH]c2cc(Cc3cccc(C(=O)O)c3)ccc12 | > 100 µM |  |  |  |  |  |  |  |  |  |  |
| O=C(O)C(=O)c1c[nH]c2cc(Cc3cccc(C(=O)O)c3)ccc12 | > 100 µM |  |  |  |  |  |  |  |  |  |  |
| O=C(O)c1cccc(Cc2ccc3cc[nH]c3c2)c1 |  | > 100 µM | > 100 µM | > 100 µM | 44.7 µM | 100 µM | 34.8 µM | 15.5 µM |  |  |  |
| COc1ccc(Cn2ccc3ccc(Cc4cccc(C(=O)O)c4)cc32)cc1 |  | 92.7 µM | > 100 µM | > 100 µM | > 100 µM | > 100 µM | 91.2 µM | 55.8 µM | 100 µM |  |  |
| O=C(O)c1cccc(Cc2ccc3ccn(Cc4cccc(C(=O)O)c4)c3c2)c1 | > 200 µM |  |  |  |  |  |  |  |  |  |  |
| O=C(O)c1cccc(Cc2ccc3ccn(Cn4ccc5ccc(Cc6cccc(C(=O)O)c6)cc54)c3c2)c1 |  | > 100 µM | > 100 µM | > 100 µM | 92.1 µM | > 100 µM | 49.6 µM | 14.6 µM |  |  |  |
| O=C(O)c1cccc(Cc2ccc3ccn(-c4cccc(C(=O)O)c4)c3c2)c1 | > 400 µM |  |  |  |  |  |  |  |  | 45 µM |  |
| COc1cccc(-n2ccc3ccc(Cc4cccc(C(=O)O)c4)cc32)c1 |  | > 100 µM | > 100 µM | > 100 µM | 67.7 µM | 61.5 µM | 34 µM | 15.8 µM |  |  |  |
| COc1cc(Cc2ccc3cc[nH]c3c2)cc(C(=O)O)c1 |  | > 100 µM | > 100 µM | > 100 µM | > 100 µM | > 100 µM | > 100 µM | 8.65 µM | > 100 µM |  |  |
| COc1ccc(C(=O)O)cc1Cc1ccc2cc[nH]c2c1 |  | > 100 µM | > 100 µM | > 100 µM | > 100 µM | > 100 µM | > 100 µM | > 100 µM | > 100 µM |  |  |
| O=C(O)c1cc(O)cc(Cc2ccc3cc[nH]c3c2)c1 | > 500 µM | > 100 µM | > 100 µM | > 100 µM | > 100 µM | > 100 µM | > 100 µM | > 100 µM |  |  |  |
| O=C(O)c1ccc(O)c(Cc2ccc3cc[nH]c3c2)c1 | > 500 µM | > 100 µM | > 100 µM | > 100 µM | > 100 µM | > 100 µM | 89.3 µM | 42.7 µM |  |  |  |
| O=C(O)c1ccc([N+](=O)[O-])c(Cc2ccc3cc[nH]c3c2)c1 |  | > 100 µM | > 100 µM | > 100 µM | > 100 µM | > 100 µM | 82.7 µM | 18.5 µM | > 100 µM |  |  |
| O=C(O)c1cccc(Cc2ccc3[nH]ccc3c2)c1 | > 400 µM | > 100 µM | > 100 µM | > 100 µM | 63.5 µM | > 100 µM | 52.4 µM | 42.4 µM |  |  |  |
| O=C(O)c1cccc(Cc2ccc3c(ccn3Cc3cccc(C(=O)O)c3)c2)c1 | > 100 µM |  |  |  |  |  |  |  |  | 35 µM | > 100 µM |
| O=C(O)c1cccc(COc2cccc(-c3ccc4ccn(Cc5cccc(C(=O)O)c5)c4c3)c2)c1 | > 500 µM | > 100 µM | > 100 µM | > 100 µM | > 100 µM | > 100 µM | 56.2 µM | 34.2 µM |  |  |  |
| COc1cccc(-c2ccc3ccn(Cc4cccc(C(=O)O)c4)c3c2)c1 | > 500 µM | 67.5 µM | > 100 µM | > 100 µM | 47.4 µM | 57.4 µM | 36.6 µM | 18 µM |  |  |  |
| O=C(O)c1cccc(Cn2ccc3ccc(-c4cccc(O)c4)cc32)c1 |  | > 100 µM | > 100 µM | > 100 µM | 82.7 µM | > 100 µM | 58.5 µM | 27.6 µM | > 100 µM |  |  |
| COc1ccc(COc2cccc(-c3ccc4ccn(Cc5cccc(C(=O)OCc6cccc(C(=O)O)c6)c5)c4c3)c2)cc1 |  | 58.9 µM | > 100 µM | > 100 µM | 22.6 µM | 34.3 µM | 18.7 µM | 13.8 µM | > 100 µM |  |  |
| O=C(O)c1cccc(Cn2ccc3ccc(-c4ccc5cc(Cl)ccc5n4)cc32)c1 |  | > 100 µM | > 100 µM | > 100 µM | > 100 µM | > 100 µM | 88.5 µM | 48 µM | 47 µM |  |  |
| COc1ccc(Cn2ccc3ccc(-c4ccc5ccn(Cc6cccc(C(=O)O)c6)c5c4)cc32)cc1 |  | 50.1 µM | > 100 µM | > 100 µM | 2.38 µM | 2.8 µM | 2.01 µM | 0.92 µM | 19 µM |  |  |
| O=C(O)c1cccc(Cn2ccc3ccc(-c4ccc5ccn(Cc6ccc(F)cc6)c5c4)cc32)c1 |  | 52.2 µM | > 100 µM | 98.5 µM | 4.49 µM | 5.2 µM | 3.3 µM | 1.56 µM | 17 µM | 1.1 µM | 0.54 µM |
| O=C(O)c1cccc(Cn2ccc3cc(-c4ccc5cc(Cl)ccc5n4)ccc32)c1 |  | 50.1 µM | > 100 µM | > 100 µM | 13.1 µM | 15.5 µM | 10.1 µM | 6.41 µM | > 100 µM |  |  |
| O=C(O)c1cccc(-c2ccc3cc[nH]c3c2)c1 | > 100 µM |  |  |  |  |  |  |  |  |  |  |
